Laboratory results from ChEMBL document CHEMBL5126576, “From tryptophan to novel mitochondria-disruptive agent, synthesis and biological evaluation of 1,2,3,6-tetrasubstituted carbazoles” (Eur J Med Chem, 2022).
Active and inactive are the calls of the source.

Columns and labels:
HCT-116 [1] = experiment: Antiproliferative activity against human HCT-116 cells after 72 hrs by MTT assay; assay type: functional, cell-based; settings: HCT-116, 72 h
HepG2 = experiment: Antiproliferative activity against human HepG2 cells after 72 hrs by MTT assay; assay type: functional, cell-based; settings: HepG2, 72 h
MCF7 = experiment: Antiproliferative activity against human MCF7 cells after 72 hrs by MTT assay; assay type: functional, cell-based; settings: MCF7, 72 h
[2] = Antiproliferative activity against human HEK293 cells after 72 hrs by MTT assay; assay type: toxicity, cell-based
U2OS [3] = experiment: Antiproliferative activity against human U2OS cells after 72 hrs by MTT assay; assay type: functional, cell-based
A549 [4] = experiment: Antiproliferative activity against human A549 cells after 72 hrs by MTT assay; assay type: functional, cell-based; settings: A549, 72 h
HCT-116 [5] = experiment: Induction of mitochondrial morphological changes in human HCT-116 cells assessed as short circular-shaped mitochondria measured after 6 hrs by confocal microscopic analysis; assay type: functional, cell-based
A549 [6] = experiment: Induction of cell cycle arrest in human A549 cells assessed as increase in number of cells at S phase at IC50 measured after 72 hrs by flow cytometry; assay type: functional, cell-based
[7] = Drug uptake in human HCT-116 cells assessed as accumulation in lipid droplets at IC50 measured after 2 hr by immunofluorescence analysis; assay type: ADME, cell-based; settings: hct-116, 2 h
HCT-116 [8] = experiment: Induction of reactive oxygen species generation in human HCT116 cells at 15 uM after 24 hrs by DCFH-DA staining based assay relative to control; assay type: functional
HCT-116 [9] = experiment: Induction of apoptosis in human HCT-116 cells assessed as increase in caspase 3/7 activity at IC50 measured after 6 to 48 hrs by […] based flow cytometry; assay type: functional, cell-based; settings: time 6-48 hrs
U2OS [10] = experiment: Induction of cell cycle arrest in human U2OS cells assessed as moderate increase in S phase at IC50 measured after 24 hrs by flow cytometry; assay type: functional, cell-based
U2OS [11] = experiment: Induction of reactive oxygen species generation in human U2OS cells by DCFH-DA staining based assay; assay type: functional, cell-based; settings: time 1-24 hrs
HCT-116 [12] = experiment: Induction of mitochondrial morphological changes in human HCT-116 cells assessed as reduction in mitochondrial length measured after 6 hrs by confocal microscopic analysis relative to control; assay type: functional; design: scale not given: the % may be the effect or the level left
HCT-116 [13] = experiment: Inhibition of cell migration in human HCT-116 cells at 5 to 10 uM measured after 24 hrs by wound healing assay; assay type: functional, cell-based; settings: dose 5-10 µM
HCT-116 [14] = experiment: Induction of cell cycle arrest in human HCT-116 cells assessed as moderate increase in S phase at IC50 measured after 24 hrs by flow cytometry; assay type: functional, cell-based
HCT-116 [15] = experiment: Induction of mitochondrial membrane potential loss in human HCT116 cells assessed as green fluorescence intensity by JC1 staining-based flow cytometry analysis; assay type: functional, cell-based
HCT-116 [16] = experiment: Inhibition of colony formation in human HCT-116 cells at 0.5 to 10 uM measured after 24 hrs crystal violet staining based assay; assay type: functional, cell-based; settings: dose 0.5-10 µM
U2OS [17] = experiment: Induction of cell cycle arrest in human U2OS cells assessed as increase in G2/M phase at IC50 measured after 24 hrs by flow cytometry; assay type: functional, cell-based
A549 [18] = experiment: Induction of cell cycle arrest in human A549 cells assessed as moderate increase in S phase at IC50 measured after 24 hrs by flow cytometry; assay type: functional, cell-based
HCT-116 [19] = experiment: Induction of apoptosis in human HCT-116 cells assessed as necrotic cells at IC50 measured after 48 hrs by Annexin-V-FITC/propidium iodide staining based flow cytometry relative to control; assay type: functional
U2OS [20] = experiment: Induction of cell cycle arrest in human U2OS cells assessed as slight increase in G0/G1 phase at IC50 measured after 24 hrs by flow cytometry; assay type: functional, cell-based
HCT-116 [21] = experiment: Induction of cell cycle arrest in human HCT-116 cells assessed as increase in number of cells at S phase at IC50 measured after 72 hrs by flow cytometry; assay type: functional, cell-based
A549 [22] = experiment: Induction of cell cycle arrest in human A549 cells assessed as slight increase in G0/G1 phase at IC50 measured after 24 hrs by flow cytometry; assay type: functional, cell-based
HCT-116 [23] = experiment: Inhibition of cell migration in human HCT-116 cells at 10 uM measured after 60 hrs by wound healing assay relative to control; assay type: functional
U2OS [24] = experiment: Induction of mitochondrial membrane potential loss in human U2OS cells assessed as green fluorescence intensity by JC1 staining-based flow cytometry analysis; assay type: functional, cell-based
HCT-116 [25] = experiment: Induction of apoptosis in human HCT-116 cells assessed as early and late apoptotic cells at IC50 measured after 24 hrs by Annexin-V-FITC/propidium iodide staining based flow cytometry; assay type: functional, cell-based
A549 [26] = experiment: Induction of cell cycle arrest in human A549 cells assessed as increase in number of cells at G2/M phase at IC50 measured after 24 to 48 hrs by flow cytometry; assay type: functional, cell-based; settings: time 24-48 hrs
U2OS [27] = experiment: Inhibition of colony formation in human U2OS cells at 0.5 to 10 uM measured after 24 hrs crystal violet staining based assay; assay type: functional, cell-based; settings: dose 0.5-10 µM
HCT-116 [28] = experiment: Induction of DNA damage in human HCT-116 cells assessed as increase in H2AX phosphorylation measured after 24 to 72 hrs by immunofluorescence analysis; assay type: functional, cell-based; settings: time 24-72 hrs
U2OS [29] = experiment: Induction of mitochondrial morphological changes in human U2OS cells assessed as short circular-shaped mitochondria measured after 6 hrs by confocal microscopic analysis; assay type: functional, cell-based
A549 [30] = experiment: Induction of cell cycle arrest in human A549 cells assessed as increase in G2/M phase at IC50 measured after 24 hrs by flow cytometry; assay type: functional, cell-based
U2OS [31] = experiment: Inhibition of cell migration in human U2OS cells at 5 to 10 uM measured after 24 to 48 hrs by wound healing assay; assay type: functional, cell-based; settings: dose 5-10 µM, time 24-48 hrs
HCT-116 [32] = experiment: Induction of apoptosis in human HCT-116 cells assessed as early apoptotic cells at IC50 measured after 6 hrs by Annexin-V-FITC/propidium iodide staining based flow cytometry; assay type: functional
HCT-116 [33] = experiment: Induction of cell senescence in human HCT-116 cells assessed by increase SA-beta-Gal activity measured after 24 to 48 hrs by microscopic analysis; assay type: functional, cell-based; settings: time 24-48 hrs
U2OS [34] = experiment: Induction of DNA damage in human U2OS cells assessed as increase in H2AX phosphorylation measured after 48 hrs by immunofluorescence analysis relative to control; assay type: functional
U2OS [35] = experiment: Induction of DNA damage in human U2OS cells assessed as increase in H2AX phosphorylation measured after 72 hrs by immunofluorescence analysis relative to control; assay type: functional
HCT-116 [36] = experiment: Induction of cell cycle arrest in human HCT-116 cells assessed as increase in G2/M phase at IC50 measured after 24 hrs by flow cytometry; assay type: functional, cell-based
HCT-116 [37] = experiment: Induction of cell cycle arrest in human HCT-116 cells assessed as slight increase in G0/G1 phase at IC50 measured after 24 hrs by flow cytometry; assay type: functional, cell-based

O=c1[nH]cc(F)c(=O)[nH]1 [FLUOROURACIL]
5.78 µM: IC50 (HCT-116 [1])
41 µM: IC50 at 72 h [2]
8.41 µM: IC50 (MCF7)
13 µM: IC50 (U2OS [3])
8.12 µM: IC50 (A549 [4])
19 µM: IC50 (HepG2)

CCOC(=O)Nc1cc2c([nH]c3ccccc32)c(C(=O)OCC)c1O
> 50 µM: IC50 (HCT-116 [1]) | IC50 (HepG2) | IC50 (MCF7) | IC50 at 72 h [2] | IC50 (U2OS [3])
16.9 µM: IC50 (A549 [4])

CC(C)(C)OC(=O)Nc1cc2c([nH]c3ccccc32)c(C(=O)O)c1O
64.2%: Activity (HCT-116 [8])
11.23%: Activity (HCT-116 [32])
3.75 µM: IC50 (HCT-116 [1])
64.4%: inhibition at 10 µM (HCT-116 [23])
11.5 µM: IC50 (A549 [4])
68.2%: Activity (U2OS [35])
active: Activity (HCT-116 [5]) | Activity (A549 [6]) | Activity (HCT-116 [9]) | Activity (U2OS [10]) | Activity (U2OS [11]) | inhibition (HCT-116 [13]) | Activity (HCT-116 [14]) | Activity (HCT-116 [15]) | inhibition (HCT-116 [16]) | Activity (U2OS [17]) | Activity (A549 [18]) | Activity (U2OS [20]) | Activity (HCT-116 [21]) | Activity (A549 [22]) | Activity (U2OS [24]) | Activity (HCT-116 [25]) | Activity (A549 [26]) | inhibition (U2OS [27]) | Activity (HCT-116 [28]) | Activity (U2OS [29]) | Activity (A549 [30]) | inhibition (U2OS [31]) | Activity (HCT-116 [33]) | Activity (HCT-116 [36]) | Activity (HCT-116 [37])
36.71%: Activity (HCT-116 [12])
> 50 µM: IC50 (HepG2) | IC50 (MCF7) | IC50 at 72 h [2]
2.34 µM: IC50 (U2OS [3])
Active: Drug uptake [7]
2.38%: Activity (HCT-116 [19])
51%: Activity (U2OS [34])

CCOC(=O)c1c(O)c(NC(=O)c2ccc(C)o2)cc2c1[nH]c1ccccc12
> 50 µM: IC50 (HCT-116 [1]) | IC50 (HepG2) | IC50 (MCF7) | IC50 at 72 h [2] | IC50 (U2OS [3]) | IC50 (A549 [4])

CCOC(=O)c1c(O)c(NC(=O)OC(C)(C)C)cc2c1[nH]c1ccc(NC(=O)OC(C)(C)C)cc12
> 50 µM: IC50 (HCT-116 [1]) | IC50 (HepG2) | IC50 (MCF7) | IC50 at 72 h [2] | IC50 (U2OS [3]) | IC50 (A549 [4])

CCOC(=O)c1c(OC(=O)c2ccc(C)o2)c(NC(=O)c2ccc(C)o2)cc2c1[nH]c1ccc(NC(=O)c3ccc(C)o3)cc12
> 50 µM: IC50 (HCT-116 [1]) | IC50 (HepG2) | IC50 (MCF7) | IC50 at 72 h [2] | IC50 (U2OS [3]) | IC50 (A549 [4])

CCOC(=O)c1c(O)c(NC(=O)OC(C)(C)C)cc2c1[nH]c1ccc(OC(C)=O)cc12
46.4 µM: IC50 (HCT-116 [1])
37.5 µM: IC50 (U2OS [3])
> 50 µM: IC50 (HepG2) | IC50 (MCF7) | IC50 at 72 h [2] | IC50 (A549 [4])

CCOC(=O)c1c(O)c(NC(=O)OC(C)(C)C)cc2c1[nH]c1ccccc12
19.6%: Activity (HCT-116 [8])
> 50 µM: IC50 (HepG2) | IC50 (MCF7) | IC50 at 72 h [2] | IC50 (A549 [4])
10.7 µM: IC50 (HCT-116 [1])
50.34%: Activity (HCT-116 [12])
1.16%: Activity (HCT-116 [19])
15.7 µM: IC50 (U2OS [3])
active: Activity (HCT-116 [5]) | Activity (HCT-116 [9]) | Activity (U2OS [11]) | inhibition (HCT-116 [13]) | Activity (HCT-116 [15]) | inhibition (HCT-116 [16]) | Activity (U2OS [24]) | Activity (HCT-116 [25]) | inhibition (U2OS [27]) | Activity (HCT-116 [28]) | Activity (U2OS [29]) | inhibition (U2OS [31]) | Activity (HCT-116 [33])
Active: Drug uptake [7]
57%: inhibition at 10 µM (HCT-116 [23])

CCOC(=O)c1c(O)c(NC(=O)c2ccc(CC)o2)cc2c1[nH]c1ccccc12
> 50 µM: IC50 (HCT-116 [1]) | IC50 (HepG2) | IC50 (MCF7) | IC50 at 72 h [2] | IC50 (U2OS [3]) | IC50 (A549 [4])

CCOC(=O)c1c(O)c(NC(C)=O)cc2c1[nH]c1ccccc12
> 50 µM: IC50 (HCT-116 [1]) | IC50 (HepG2) | IC50 (MCF7) | IC50 at 72 h [2] | IC50 (U2OS [3]) | IC50 (A549 [4])

CCOC(=O)CC(=O)C(Cc1c[nH]c2ccccc12)NC(=O)OC(C)(C)C (configuration not stated)
> 50 µM: IC50 (HCT-116 [1]) | IC50 (HepG2) | IC50 (MCF7) | IC50 at 72 h [2] | IC50 (U2OS [3]) | IC50 (A549 [4])
